One test deals with HIF1 reporter activity. The test is described as follows: HIF1 luciferase reporter assay. More on the design: key to HIF1 luciferase reporter activity, relative (Fig.7e): firefly/Renilla luciferase activity ratio, relative to control. It counts as cell-based, human. The method, then: Fig. 7 NHWD-870 inhibited CSF1 expression through suppressing BRD4 and HIF1α in tumor cells. a, b Representative western blot analysis of control (Ctrl) and BRD4 knockout (KO) A375 and A2780 cells exposed to 20% or 1% O2 for 24 hours. Selected from three independent experiments. c, d Representative western blot analysis of A375 and A2780 cells treated with DMSO or 25 nM NHWD-870 and exposed to 20% or 1% O2 for 24 h. Selected from three independent experiments. e Relative HIF1 luciferase reporter activity in control (Ctrl), BRD4 knockout (KO), or NHWD-870 treated A375 and A2780 cells exposed to 20% or 1% O2 for 24 h. Data are presented as mean ± SEM from three independent experiments. f RT-qPCR analyses of CSF1 in control (Ctrl), BRD4 knockout (KO), or NHWD-870 treated A375 and A2780 cells exposed to 20% or 1% O2 for 24 hours. Data are presented as mean ± SEM from three independent experiments. g RT-qPCR analyses of HIF1A in A375 or A2780 cells treated with 15 nM NHWD-870 or DMSO control for 24 h. Data are presented as mean ± SEM from three independent experiments. h Genome browser view of BRD4 ChIP-seq peaks on the HIF1A promoter. Shown are BRD4 ChIP and input control of A375 cells (top panel) and BRD4 ChIP of MDA-MB231 cells treated with DMSO or JQ-1 (bottom panel). i BRD4 ChIP-qPCR analyses of the HIF1A promoter in A2780 cells treated with DMSO or NHWD-870 for 72 h. Data are presented as mean ± SEM from three independent experiments. j RT-qPCR analyses of CSF1 in A375 and A2780 cells were transiently transduced with HIF1α, then exposed to 1% O2 for 24 h. Ctrl, Control. Data are presented as mean ± SEM from three independent experiments. k A model showing the effects of NHWD-870 on cancer cell-TAM interaction. NHWD-870 inhibits the proliferation and survival of TAMs partly by inhibiting BRD4 activity, HIF1α expression, and CSF1 secretion by tumor cells, and downregulating CSF1R mediated ERK and PI3K/AKT signaling in TAMs. p values were calculated using two-tailed, unpaired t tests in this figure. *p < 0.05; **p < 0.01; ***p < 0.001. Source data are provided as a Source Data file.
Supplementary Figure 15. […]
Data in (a) and (c-e) are presented as mean ± SEM from 3 independent experiments. p values were calculated using two-tailed, unpaired t tests. **, p<0.01; ***, p<0.001. Source data are provided as a Source […]
All patients had […]
undergone complete cytoreductive surgery.
14. Immunohistochemical staining. Paraffin-embedded implantation samples isolated from peritoneal metastasis of EOC patients (128 cases) were sectioned at a thickness of 4μm. To stain CD68, CSF1 and p-BRD4, the slides were first deparaffinized in xylene and rehydrated with gradient concentrations of alcohol under standard procedures. After rehydration, the slides were immersed in 0.01 mol/L citrate buffer (pH 6.0) and heated (95°C) for 15 min for antigen retrieval.
Then, the samples were incubated with 3% hydrogen peroxide (H2O2) for 10 minutes followed by 10% normal goat serum blocking for 10 minutes. Subsequently, the sections were incubated with rabbit polyclonal anti-human CD68 antibody (dilution 1:100) (sc-20060, Santa Cruz Biotechnology) and anti-human p-BRD4
(A reporter such as luciferase makes a cellular process visible.)

The subject of test [1] is TAMs (CD68+ cells) in H526 tumors. The test can be described thus: Immunofluorescent staining of CD68 (TAMs) in subcutaneous H526 tumors. As to conditions: subcutaneous H526 tumors from Fig. 3a, individual tumors. It counts as in vivo, mouse. An excerpt: Shown are immunofluorescent staining of CD68 (macrophage marker, red) and E-Cadherin (cancer cells, green) (a) and quantification of CD68 positive cells (b) in vehicle, NHWD-870 treated H526 (n = 6) and A2780 (n = 5) tumors from Fig. 3a, b, respectively. Scale bar is 100 μm. […] Shown are representative immunofluorescent staining of Ki67 and CD68 (c) and quantification of percentage of Ki67+ cells in CD68+ cells (d). Scale bar is 30 μm. Data are presented as mean ± SEM of five different tumors. e Schematics of the animal experiments using an orthotopic mouse OC model, established by intraperitoneally injecting human A2780 cells into female recipient nude mice. […] Shown are representative immunofluorescent staining of Ki67 and CD68 (h) and quantification of Ki67^+CD68^− (i) or Ki67^+CD68^+ (j), or CD68^+ cells (k). […] Data are presented as mean ± SEM from five different mice. p values were calculated using two-tailed, unpaired t tests in this figure. *p < 0.05; **p < 0.01; ***p < 0.001. […]
Immunofluorescence staining of tumor sections was performed according to the manufacturer’s instructions. Slides were imaged using a Zeiss Axiovert 200 fluorescence microscope (Carl Zeiss MicroImaging; Thornwood, NY), and images were captured using Openlab3 software (Imprecision, Lexington, MA). Cleaved caspase 3, Ki67, CSF1, and CD68 positive cells were counted with ImageJ version 1.52s[58].

Where “and” joins values, the source holds several entries; their conditions need not be identical. Equal entries are not always repeated.

As to `Cc1nnn(C)c1-c1cnc2c3c4cnn(C)c4ccc3n([C@H](c3ccccc3)C3CCOCC3)c2c1` [NHWD-870], the “HIF1 luciferase reporter activity, relative (Fig.7e)” value in the test with HIF1 reporter activity (A375, 1% O2) was 3.6595 and 5.4118 and 3.2149; in the test with HIF1 reporter activity (A375, 20% O2) it was 0.7214 and 0.5505 and 0.6045; with HIF1 reporter activity (A2780, 1% O2), 1.7045 and 2.3901 and 2.1842; in the test with HIF1 reporter activity (A2780, 20% O2) it was 0.5644 and 0.5674 and 0.4042. In addition, the HIF1 reporter activity result in the test on HIF1 reporter activity (A2780 and A375 cells, 20% or 1% O2, 24 h) is on record as “significantly decreased HIF1 reporter activity”. Besides, the “quantification of CD68 positive cells” value in test [1] was 0.3 and 1.5 and 0.1 and 0.7 and 0.5 and 1.1.
